In US20120207763A1, “PYRROLOPYRIMIDINE COMPOUNDS AND THEIR USES” (ASTEX THERAPEUTICS LIMITED, priority 2006, published 2012):

Biological target: T1, JAK-3 (Homo sapiens, UniProt P52333)
T1 construct: GST fusion constructs of the kinase domains of both enzymes are used; GST
Test: JAK LANCE enzymatic assay (JAK-3)
Format: biochemical
Conditions: Table A; read-out: Jak-3/ IC50
Description: Binding of cytokines and certain growth factors to their respective receptors trigger activation of Janus kinases, which phosphorylate members of the STAT family. Phosphorylated STAT molecules dimerize and migrate to the nucleus where they bind to DNA and initiate transcription of responsive genes. Inhibitors of pathways downstream of cytokine/growth factor receptors have therapeutic potential for several indications. An enzymatic assay for JAK-3 and JAK-2 has been developed to identify T-cell selective inhibitors. GST fusion constructs of the kinase domains of both enzymes are used and a biotinylated, tyrosine containing peptide serves as substrate. Phosphorylation of this peptide by the respective kinase is quantified with an europium-labeled anti-phosphotyrosine antibody (Eu-PT66) as energy donor and a streptavidin-allophycocyanine conjugate (SA-APC) as energy acceptor. The assay has been established in a 384 well format.
In the JAK LANCE™ assay, a biotinylated peptide is incubated together with compounds and ATP in buffer. The phosphorylation reaction starts after addition of JAK kinase. After incubation at RT the reaction is stopped with EDTA and the product detected by addition Streptavidin-Allophycocyanin and Europium-labeled antiphosphotyrosine antibody. The signal is measured using an EnVision Reader. Exc: 320 nm, Em, Donor: 615 nm and Em, Acceptor: 665 nm in time resolved fashion with a delay of […].

T1 sequence (P52333 822-1111 limits assumed): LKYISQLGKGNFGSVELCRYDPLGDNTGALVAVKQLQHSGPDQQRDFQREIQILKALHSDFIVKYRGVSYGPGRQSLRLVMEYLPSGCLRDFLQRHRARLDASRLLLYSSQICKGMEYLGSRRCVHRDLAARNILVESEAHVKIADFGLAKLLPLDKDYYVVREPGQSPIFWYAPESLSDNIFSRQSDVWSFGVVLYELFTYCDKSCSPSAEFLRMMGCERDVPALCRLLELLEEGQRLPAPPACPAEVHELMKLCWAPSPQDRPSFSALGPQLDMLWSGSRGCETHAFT

Row | SMILES | IC50
1 | CCC(CC)N1C(=O)Cc2cnc(Nc3cccc(C(=O)N4CCOCC4)c3)nc21 | ≥ 100 nM
2 | CCC(CC)N1C(=O)Cc2cnc(Nc3ccc(N4CCN(C(C)=O)CC4)cn3)nc21 | ≥ 100 nM
3 | COc1ccc(C(=O)N2CCN(C)CC2)cc1Nc1ncc2c(n1)NC(=O)C2 [drawing 18] | ≥ 100 nM
4 | CCC(CC)N1C(=O)Cc2cnc(Nc3cccc(NC(=O)c4ccncc4)c3)nc21 | ≤ 100 nM
5 | CCC(CC)N1C(=O)Cc2cnc(Nc3ccc(N4CCCCC4)cc3)nc21 | ≥ 100 nM
6 | CCC(CC)N1C(=O)Cc2cnc(Nc3cccc(-c4nncn4C)c3)nc21 | ≥ 100 nM
7 | CCC(CC)N1C(=O)Cc2cnc(Nc3ccc(N4CCOCC4)cc3)nc21 | ≤ 100 nM
8 | CCC(CC)N1C(=O)Cc2cnc(Nc3cc(NC(=O)c4ccncc4)ccc3F)nc21 | ≥ 100 nM
9 | CCC(CC)N1C(=O)Cc2cnc(Nc3ccc(C(=O)NC)cc3)nc21 | ≥ 100 nM
10 | CN1CCN(c2ccc(Nc3ncc4c(n3)N(C3CCCC3)C(=O)C4)cc2)CC1 | ≥ 100 nM
11 | O=C(c1ccc(Nc2ncc3c(n2)N(C2CC2)C(=O)C3)cc1)N1CCOCC1 | ≥ 100 nM
12 | CCC(CC)n1c(=O)n(C)c2cnc(Nc3ccc(N4CCN(C(C)=O)CC4)cc3)nc21 | ≤ 100 nM
13 | O=C1Cc2cnc(Nc3ccc(C(=O)N4CCOCC4)cc3)nc2N1 | ≥ 100 nM
14 | CCC(CC)n1cnc2cnc(Nc3ccc(N4CCN(C(C)=O)CC4)cc3)nc21 | ≥ 100 nM
15 | CN1CCN(c2ccc(Nc3ncc4c(n3)NC(=O)C4)cc2)CC1 | ≥ 100 nM
16 | CCC(CC)N1C(=O)Cc2cnc(Nc3ccc(C(=O)N4CCN(C)CC4)cc3)nc21 | ≥ 100 nM
17 | CCC(CC)N1C(=O)Cc2cnc(Nc3ccc(N4CCN(S(C)(=O)=O)CC4)cc3)nc21 | ≤ 100 nM
18 | CCC(CC)N1C(=O)Cc2cnc(Nc3ccc(S(=O)(=O)Nc4ccccn4)cc3)nc21 | ≥ 100 nM
19 | CCC(c1ccccc1)N1C(=O)Cc2cnc(Nc3ccc(N4CCN(C(C)=O)CC4)cc3)nc21 (stereo not drawn) | ≥ 100 nM
20 | CCC(CC)N1C(=O)Cc2cnc(Nc3ccc(N4CCN(C)CC4)cc3)nc21 | ≤ 100 nM
21 | CCNC(=O)c1ccc(Nc2ncc3c(n2)N(C(CC)CC)C(=O)C3)cc1 | ≤ 100 nM
22 | CCC(CC)N1C(=O)Cc2cnc(Nc3cccc(OCCN(CC)CC)c3)nc21 | ≥ 100 nM
23 | O=C1Cc2cnc(Nc3ccc(N4CCOCC4)cc3)nc2N1C1CC1 | ≥ 100 nM
24 | CCC(CC)n1ccc2cnc(Nc3ccc(N4CCN(C)CC4)c(F)c3)nc21 [drawing 83] | ≤ 100 nM
25 | CCC(CC)n1ccc2cnc(Nc3ccc(N4CCN(C(C)=O)CC4)cn3)nc21 [drawing 81] | ≥ 100 nM

Row | SMILES | IC50
26 | CCC(CC)N1C(=O)Cc2cnc(Nc3cc(NC(=O)c4ccncc4)ccc3OC)nc21 | ≥ 100 nM
27 | CCC(CC)N1C(=O)Cc2cnc(Nc3ccc(C(=O)N4CCOCC4)cc3)nc21 | ≥ 100 nM
28 | CCC(CC)N1C(=O)Cc2cnc(Nc3ccc(C(=O)NC4CCCC4)cc3)nc21 | ≤ 100 nM
29 | CCC(CC)N1C(=O)Cc2cnc(Nc3cc(C(=O)N4CCOCC4)ccc3F)nc21 | ≥ 100 nM
30 | CCC(CC)N1C(=O)Cc2cnc(Nc3cccc(NCCN4CCCC4)c3)nc21 | ≤ 100 nM
31 | CCC(CC)N1C(=O)Cc2cnc(Nc3ccc(-n4cncn4)cc3)nc21 | ≥ 100 nM
32 | CCC(CC)n1ccc2cnc(Nc3ccc(N4CCN(C(C)=O)CC4)cc3)nc21 [drawing 51] | ≤ 100 nM
33 | CCC(CC)N1C(=O)Cc2cnc(Nc3ccc(C(=O)NCCN(C)C)cc3)nc21 | ≥ 100 nM
34 | COc1ccc(C(=O)N2CCN(C)CC2)cc1Nc1ncc2c(n1)NC(=O)C2 [drawing 20] | ≥ 100 nM
35 | CCC(CC)n1ccc2cnc(Nc3cccc(NC(=O)c4ccncc4)c3)nc21 | ≤ 100 nM
36 | CCC(CC)N1C(=O)Cc2cnc(Nc3cccc(OCCN4CCN(C)CC4)c3)nc21 | ≥ 100 nM
37 | CCC(CC)N1C(=O)C(C)(C)c2cnc(Nc3ccc(N4CCN(C(C)=O)CC4)cc3)nc21 | ≥ 100 nM
38 | CCC(CC)N1C(=O)Cc2cnc(Nc3ccc(C(=O)NC(C)C)cc3)nc21 | ≥ 100 nM
39 | CCC(CC)N1C(=O)Cc2cnc(Cl)nc21 | ≥ 100 nM
40 | CCC(CC)n1ccc2cnc(Nc3ccc(N4CCN(C)CC4)cc3)nc21 | ≤ 100 nM
41 | CCC(CC)N1C(=O)Cc2cnc(Nc3ccc(C(=O)NCCN4CCN(C)CC4)cc3)nc21 | ≥ 100 nM
42 | CCC(CC)n1c(=O)[nH]c2cnc(Nc3ccc(N4CCN(C)CC4)cc3)nc21 | ≤ 100 nM
43 | CCC(CC)N1C(=O)Cc2cnc(Nc3ccc(N4CCC(OC(=O)c5ccccc5)CC4)cc3)nc21 | ≥ 100 nM
44 | COc1ccc(C(=O)N2CCOCC2)cc1Nc1ncc2c(n1)NC(=O)C2 [drawing 17] | ≥ 100 nM
45 | CCC(CC)N1C(=O)Cc2cnc(Nc3ccc(NC(C)=O)cc3)nc21 | ≥ 100 nM
46 | CCC(CC)N1C(=O)Cc2cnc(Nc3ccc(NC(=O)c4ccncc4)cc3)nc21 | ≥ 100 nM
47 | CCC(CC)N1C(=O)Cc2cnc(Nc3cccc(OCCN4CCOCC4)c3)nc21 | ≥ 100 nM
48 | CCC(CC)N1C(=O)Cc2cnc(Nc3ccc(S(=O)(=O)N4CCN(C)CC4)cc3)nc21 | ≥ 100 nM
49 | CCC(CC)N1C(=O)Cc2cnc(Nc3ccc(N4CCC(N5CCN(C)CC5)CC4)cc3)nc21 | ≤ 100 nM
50 | O=C1Cc2cnc(Nc3ccc(N4CCOCC4)cc3)nc2N1 | ≥ 100 nM

Row | SMILES | IC50
51 | CCC(CC)N1C(=O)Cc2cnc(Nc3ccc4[nH]ncc4c3)nc21 | ≥ 100 nM
52 | CCC(CC)N1C(=O)Cc2cnc(Nc3ccc(N4CCC(O)CC4)cc3)nc21 | ≤ 100 nM
53 | CCC(CC)N1C(=O)Cc2cnc(Nc3cccc(N(C)CCN4CCCC4)c3)nc21 | ≥ 100 nM
54 | CCC(CC)n1cnc2cnc(Nc3ccc(N4CCN(C)CC4)cc3)nc21 | ≥ 100 nM
55 | CCC(CC)N1C(=O)Cc2cnc(Nc3ccc(N4CCN(C)CC4)nc3)nc21 | ≥ 100 nM
56 | CCC(CC)N1C(=O)Cc2cnc(Nc3ccc(C(=O)NC(C)(C)C)cc3)nc21 | ≥ 100 nM
57 | CN1CCN(C(=O)c2cccc(Nc3ncc4c(n3)N(C3CC3)C(=O)C4)c2)CC1 | ≥ 100 nM
58 | COc1ccc(C(=O)N2CCOCC2)cc1Nc1ncc2c(n1)NC(=O)C2 [drawing 19] | ≥ 100 nM
59 | CN1CCN(C(=O)c2cccc(Nc3ncc4c(n3)N(C3CCCCC3)C(=O)C4)c2)CC1 | ≥ 100 nM
60 | CCC(CC)n1ccc2cnc(Nc3cccc(OCCN4CCCC4)c3)nc21 | ≤ 100 nM
61 | CCC(CC)N1C(=O)Cc2cnc(Nc3ccc(NC(=O)c4cccnc4)cc3)nc21 | ≥ 100 nM
62 | CCC(c1ccccc1)N1C(=O)Cc2cnc(Nc3cccc(OCCn4ccnc4)c3)nc21 (stereo not drawn) | ≥ 100 nM
63 | CCC(CC)N1C(=O)Cc2cnc(Nc3cccc(OCCn4ccnc4)c3)nc21 | ≥ 100 nM
64 | CCC(CC)N1C(=O)Cc2cnc(Nc3ccc(C(=O)N(C)C)cc3)nc21 | ≥ 100 nM
65 | CCC(CC)n1c(=O)n(C)c2cnc(Nc3ccc(N4CCN(C)CC4)cc3)nc21 | ≤ 100 nM
66 | CCC(CC)n1c(=O)[nH]c2cnc(Nc3ccc(N4CCN(C(C)=O)CC4)cc3)nc21 | ≥ 100 nM
67 | CCC(CC)N1C(=O)Cc2cnc(Nc3ccc(N4CCN(C)CC4)cn3)nc21 | ≥ 100 nM
68 | O=C1Cc2cnc(Nc3ccc(N4CCOCC4)cc3)nc2N1C1CCCC1 | ≥ 100 nM
69 | CCC(CC)N1C(=O)Cc2cnc(Nc3ccc(OCCN4CCCC4)cc3)nc21 | ≤ 100 nM
70 | CCC(c1ccccc1)n1ccc2cnc(Nc3ccc(N4CCN(C(C)=O)CC4)cc3)nc21 (stereo not drawn) | ≤ 100 nM
71 | CCN1C(=O)Cc2cnc(Nc3ccc(N4CCN(C)CC4)cc3)nc21 | ≥ 100 nM
72 | CCC(CC)N1C(=O)Cc2cnc(Nc3ccc(C(=O)NCCN4CCCCC4)cc3)nc21 | ≥ 100 nM
73 | CCC(CC)N1C(=O)Cc2cnc(Nc3cccc(C(=O)N4CCN(C)CC4)c3)nc21 | ≥ 100 nM
74 | CCC(CC)N1C(=O)Cc2cnc(Nc3cccc(NCCN4CCN(C)CC4)c3)nc21 | ≤ 100 nM

Same assay, conditions: Table B; read-out: Jak-3 Lance/ IC50 [nmol I-1]

Row | SMILES | IC50
75 | Cc1cn(C2CCCCC2)c2nc(Nc3ccc(N4CCN(C)CC4)cc3)ncc12 [drawing 115] | ≥ 100 nM
76 | CCC(CC)n1cc(C)c2cnc(Nc3ccc(C(=O)NC4CCCC4)cc3)nc21 [drawing 116] | ≥ 100 nM
77 | Cc1cn(C2CCCC2)c2nc(Nc3ccc(N4CCNCC4)cn3)ncc12 [drawing 97] | ≥ 100 nM
78 | Cc1cn(C2CCCC2)c2nc(Nc3ccc(N4CCN(C)CC4)cc3)ncc12 | ≥ 100 nM
79 | CCC(CC)n1c(C)cc2cnc(Nc3ccc(N4CCNCC4)cc3)nc21 [drawing 125] | ≤ 100 nM
80 | CCC(CC)N1C(=O)C(C)(C)c2cnc(Nc3ccc(N4CCN(C)CC4)cc3)nc21 [drawing 105] | ≥ 100 nM
81 | Cc1cn(C2CCCCC2)c2nc(Nc3ccc(N4CCNCC4)cc3)ncc12 | ≥ 100 nM
82 | CCC(CC)n1c(C=O)cc2cnc(Nc3ccc(N4CCN(C(C)=O)CC4)cc3)nc21 [drawing 118] | ≤ 100 nM
83 | CCOC(OCC)c1cc2cnc(Nc3ccc(N4CCN(C(C)=O)CC4)cc3)nc2n1C(CC)CC [drawing 117] | ≥ 100 nM
84 | CCC(CC)n1ccc2cnc(NC3CC3)nc21 [drawing 100] | ≥ 100 nM
85 | Cc1cn(C2CC2)c2nc(Nc3ccc(N4CCN(C)CC4)cc3)ncc12 [drawing 121] | ≥ 100 nM
86 | CCC(CC)n1ccc2cnc(Nc3ccc(C(=O)NC4CCCC4)cc3)nc21 [drawing 99] | ≤ 100 nM
87 | CCC(CC)n1cc(C)c2cnc(Nc3ccc(N4CCN(C(C)=O)CC4)cc3)nc21 [drawing 101] | ≥ 100 nM
88 | CC(=O)N1CCN(c2ccc(Nc3ncc4ccn(C5CCCC5)c4n3)cc2)CC1 [drawing 111] | ≥ 100 nM
89 | CCC(CC)n1cc(C)c2cnc(Nc3ccc(N4CCN(C)CC4)cc3)nc21 [drawing 103] | ≥ 100 nM
90 | CCC(CC)n1c(C)cc2cnc(Nc3ccc(C(=O)NC4CCCC4)cc3)nc21 [drawing 124] | ≥ 100 nM
